The text below walks through data of PubChem BioAssay AID2305 (GlaxoSmithKline (GSK), 2010).

For this assay, the system named is P. falciparum 3D7 growth, pLDH absorbance. Kind of assay: P. falciparum 3D7 growth inhibition, dose response, strain 3D7 (AID 2305).

One may read the IC50 as the concentration that gives 50% inhibition. The low end stands for higher potency, the high end for lower potency. Compound `Cc1ccc2nc(Nc3ccc(Nc4nc5ccc(C)cc5[nH]4)c(C)c3)[nH]c2c1` displayed an IC50 of 770 nM.

Regarding `O=C(Nc1ccc(S(=O)(=O)N2CCCCC2)cc1)c1cc(-c2ccccc2O)n[nH]1`, the IC50 came out at 850 nM. This IC50 and that of the compound before are within 1.5-fold of each other. For `COc1ccc(-c2cc(C(=O)N[C@@H](CC3CCCCC3)C(=O)NCCN3CCCCC3)ccc2O)cc1` the value was 950 nM; for `COc1ccc(CCN(C)CCCCNC(=O)c2ccc(NC(=O)c3ccc(Cl)cc3)cc2)c(OC)c1`, 920 nM. For `O=[N+]([O-])c1ccc2nccnc2c1` the value was 1070 nM. For `COCCNCc1ccc(-c2cccc(CN(C(=O)NCCc3ccccc3)C3CCN(Cc4ccccc4)CC3)c2)cc1` the value was 920 nM; for `CC(C)NC(C)(C)CN(Cc1ccc(-c2ccc(C(F)(F)F)cc2)cc1)C(=O)Cn1c(CCc2cccc(F)c2F)nc(=O)c2ccccc21`, 910 nM. `O=c1cc(NCCCNCc2sc(Br)nc2Br)[nH]c2ccccc12` showed an IC50 of 870 nM. For `CCc1ccc(Cc2cnc3nc(N)nc(N)c3c2C)cc1CC` the value was 290 nM; for `Cc1cc(NCCC(=O)NCc2cccc(F)c2)nc(NCCc2ccc(F)cc2)n1`, 1750 nM. As for `CCn1cc(C=C2Oc3c(ccc(O)c3CN3CCCCC3)C2=O)c2cc(OC)ccc21`, the figure is 520 nM; as for `COc1ccc2nccc([C@@H](O)CN3CCC(NCc4nc5c(C#N)cccc5[nH]4)CC3)c2c1`, 1000 nM; as for `CC(=O)c1ccc(NC(=O)Nc2ccc3nccc(N4CCN(C)CC4)c3c2)cc1`, 430 nM. For `Nc1nc(Cc2ccc(Cl)cc2)nc(Cc2ccc(Cl)cc2)n1` the value was 930 nM; for `c1cc(CNCCc2ccncc2)cc(-c2cccc(-c3nc4ccccc4[nH]3)c2)c1`, 150 nM; for `CCOC(=O)c1[nH]c(-c2cc(Cl)nc(Cl)c2)nc1NC(=S)NCCCN1CCOCC1`, 930 nM. For `CN(C(=O)/C=C/c1cc(C(F)(F)F)ccc1F)C1CCN(CCCCCNC(=O)/C=C/c2ccc(Cl)c(Cl)c2)C1` (stereo not given), the IC50 came out at 1090 nM. The IC50 values of the last two compounds are within 1.5-fold of each other.

With `Cc1ccc(F)cc1-c1cc(N2CCCN(C(=O)c3ccc(Br)o3)CC2)ncn1`, the IC50 came to 1430 nM. For `CCCCC(=O)Nc1ccc(Nc2nc(C)cc(N3CCCC3)n2)cc1` the value was 1060 nM; for `CN1C(=O)OC[C@@H]1Cc1ccc2[nH]cc(C3=CCN(Cc4ccccc4)CC3)c2c1`, 420 nM; for `COc1ccc2nc3cc(Cl)ccc3c(Nc3ccc(Sc4ccc(Nc5c6ccc(Cl)cc6nc6ccc(OC)cc56)cc4)cc3)c2c1`, 200 nM. As for `CCc1ccc2c(c1O)CCN(C)C2Cc1ccccc1Cl` (stereo not given), the figure is 250 nM. As for `O=c1cc(NCCC(CNCc2ccoc2)NCc2cc(Br)cc(Br)c2)[nH]c2ccccc12` (stereo not given), the figure is 910 nM. For `COc1ccc2nccc([C@@H](O)CN3CCC(NC(=O)Cn4nc(-c5ccc(C(F)(F)F)cc5)ccc4=O)CC3)c2c1`, the IC50 turned out to be 740 nM. For `O=C(Nc1ccc(Cl)cc1)Nc1cccc(-c2cc(CNCCc3ccccc3)oc2-c2ccncc2)c1` the value was 280 nM; for `Cc1[nH]c(C)c([N+](=O)[O-])c(=O)c1-c1ccc(Oc2ccccc2)cc1`, 270 nM. For `CCOc1cc(C(=O)NCCN(C(C)C)C(C)C)ccc1-c1nc2ccc(Cl)cc2[nH]1` the value was 780 nM; for `O=C(NCc1cccc(C(F)(F)F)c1)C(c1cc2ccccc2o1)N1CCN(C(c2ccccc2)c2ccccc2)CC1` (stereo not given), 500 nM; for `CCCn1c(Sc2ccc(C#N)c([N+](=O)[O-])c2)nnc1-c1ccc(N(C)C)cc1`, 130 nM. As for `Oc1ccc(CCNc2nc(NCCCOc3cc(CN4CCCCC4)ccc3F)nc(N3CCNCC3)n2)cc1`, the figure is 1760 nM.

`CCOc1ccc(C(C)NC(=O)Nc2ccccc2)cc1OCC` (stereo not given) showed an IC50 of 900 nM. As for `CCCCCc1cc(O)c2c(c1)OC(C)(C)CC2C1=CCN(Cc2ccccc2)CC1` (stereo not given), the figure is 770 nM.

`O=C(NC1CC1)c1ccc(Cn2c(SCc3cccc([N+](=O)[O-])c3)nc3ccccc3c2=O)cc1`: the IC50 is 760 nM. As for `NOCCCOc1ccccc1`, the figure is 320 nM. As for `O=C(Nc1ccc(N2CCN(Cc3c[nH]c4cc(F)ccc34)CC2)cc1)c1ccccc1-c1ccc(C(F)(F)F)cc1`, the figure is 990 nM; as for `CCCCCCN1CCCN(Cc2cccc(NC(=O)c3cc4ccccc4s3)c2)CC1`, 660 nM; as for `CCCCCCN1CCN(Cc2cccc(NC(=O)c3ccc(Cl)c(Cl)c3)c2)CC1`, 610 nM. For `COc1ccc(CNc2nc(NCc3ccccc3)c3cc(OC)c(OC)cc3n2)cc1OC` the value was 540 nM. For `N#Cc1ccc2c(c1)CCN(CCC1CCC(NC(=O)c3cc4cccc(Cl)c4[nH]3)CC1)CC2` (stereo not given), the 50% inhibitory concentration (IC50) stood at 580 nM.

`FC(F)(F)c1ccc2nc(-c3cccc(-c4ccc(CNCc5cnn(-c6ccccc6)n5)cc4)c3)[nH]c2c1` returned an IC50 of 1330 nM. As for `COc1cccc(C(=O)C2CC2CN2CC=C(c3c[nH]c4ccc(OC)nc34)CC2)c1` (stereo not given), the figure is 530 nM; as for `COc1ccc(NC(=O)/C=C/c2ccccc2Cl)cc1OCCN1CCC(NCc2ccccc2)CC1`, 350 nM. Compound `COc1cc(C(=O)N2[C@@H](c3nccs3)[C@@H](C(=O)N(OC)C(C)c3ccccc3)C[C@@]2(CC(C)C)C(=O)OC(C)(C)C)ccc1C(C)(C)C` (stereo not given in full) displayed an IC50 of 1070 nM. As for `O=C(Nc1cccc(C(F)(F)F)c1)c1cc([N+](=O)[O-])cc2cn[nH]c12`, the figure is 990 nM; as for `O=C(Nc1cccc(-c2csc(-c3nc4ccccc4[nH]3)c2)c1)c1cccnc1`, 230 nM; as for `Cc1ccc(CNC(=O)[C@H](CC(C)C)Nc2cc(C)nc(NCC3CCCCC3)n2)cc1`, 930 nM. `Cc1cc(N[C@@H](Cc2ccccc2)C(=O)NCCOc2ccccc2)nc(NCCc2cccs2)n1` had a concentration for half-maximal inhibition (IC50) of 1000 nM. For `Cc1cccc2[nH]c(-c3ccc(-c4ccc(CNCc5ccccc5)cc4)cc3)nc12` the value was 510 nM; for `N#Cc1ccc(-c2ccc(C(=O)NCCCCN3CCC(c4ccc5c(c4OCC(N)=O)CCCC5)CC3)nc2)cc1`, 730 nM. As for `NC1CCN(Cc2cccc(-c3ccc(-c4nc5ccc(F)cc5[nH]4)cc3)c2)C1` (stereo not given), the figure is 600 nM; as for `COc1ccc2ncc(F)c(CCN3CCC(CNC(=O)C(=O)c4c[nH]c5ccccc45)CC3)c2n1`, 390 nM. For `Cc1cc(CN2CC[C@H](NC(=O)c3ccc(Cl)c(Cl)c3)C2)ccc1OC1CCN(Cc2ccccc2)CC1` the value was 910 nM. Compound `CS(=O)(=O)c1ccc(-c2cncc(Nc3cccc([N+](=O)[O-])c3)c2)cc1` yielded an IC50 of 770 nM.

For the compound `CCCC(C)Nc1nc(C)cc(N[C@@H](CC(C)C)C(=O)NCCc2ccccc2)n1` (stereo not given in full), the IC50 was 1360 nM.

`O=C(CCCCCNC(=O)c1ccc(O)c(-c2ccc(Cl)c(Cl)c2)c1)NCc1cccc2ccccc12` showed an IC50 of 760 nM. Compound `CC(C)N1CCC(N(Cc2ccc(-c3ccc(C(F)(F)F)cc3)cc2)C(=O)Cn2c(CCc3cccc(F)c3F)cc(=O)c3c2CCC3)CC1` registered an IC50 of 620 nM.

The compound `COc1cc2c(cc1OC)CN(CCCCNC(=O)c1ccc(NC(=O)c3cc(Cl)cc(Cl)c3)cc1)CC2` showed an IC50 of 780 nM. For `c1ccc(-c2ccc(CNCc3ccc(-c4cccc(-c5nc6ccccc6[nH]5)c4)cc3)s2)nc1` the value was 400 nM.

Take `CC(C)CC1c2[nH]c3ccccc3c(=O)c2CN1C(=O)OC(C)(C)C` (stereo not given): the IC50 is 220 nM.

`CCc1c(C)nc(-n2nc(C)cc2NC(=O)CCc2ccccc2)[nH]c1=O` came in with an IC50 of 750 nM. As for `CCCCCCn1ccc2c3c(N)nc(N)nc3ccc21`, the figure is 150 nM; as for `CCC1(CC)N=C(N)N=C(N)C1c1ccc(Cl)c(Cl)c1` (stereo not given), 380 nM. For `CC1CCCCN1S(=O)(=O)c1ccc(NC(=O)c2cc(-c3ccccc3O)n[nH]2)cc1` (stereo not given) the value was 760 nM; for `CC(=O)c1ccccc1C(=O)N1CCOc2ccc(C(O)C(c3ccccc3)c3ccccc3)cc2C1` (stereo not given), 900 nM; for `O=C(Cc1cccc(Cl)c1)Nc1ccc(N2CCC(NCc3ccc4ncccc4c3)CC2)cc1`, 1230 nM.

In the case of `CN(C)CCNCc1ccc(-c2ccc(-c3nc4ccc(F)cc4[nH]3)cc2)cc1`, the IC50 amounted to 470 nM. This IC50 lies about 2.6-fold lower than the previous one.

`CC(C)(C)c1ccc(CNC(=O)c2ccc(CNC3CCC(N)CC3)s2)cc1` (stereo not given) came in with an IC50 of 530 nM. As for `Cc1ccc(CC(C)NC[C@H](O)c2cccc(Cl)c2)cc1` (stereo not given in full), the figure is 860 nM; as for `O=c1cc(NCCCNC2CCCc3c2cc(Cl)c(Cl)c3Cl)[nH]c2ccccc12` (stereo not given), 280 nM. For `COc1cc2nc(NCCn3nc(C)cc3C)nc(NCCc3ccccc3)c2cc1OC` the value was 440 nM; for `Cc1ccc(NC(=O)c2ccc3ncccc3c2)cc1OC1CCN(C(C)C)C1` (stereo not given), 990 nM. For `CCOC(=O)c1ccc(NC(=O)N(Cc2ccc(-c3ccc(CN4CCNCC4)cc3)cc2)Cc2cccnc2)cc1` the value was 930 nM; for `O=S(=O)(Nc1cccc(CCN2CCCCC2CCN2CCCC2)c1)c1ccc(Oc2ccccc2)cc1` (stereo not given), 1050 nM. The compound `COc1ccccc1N1CCN(CCCCN(C(=O)Nc2cccc(Cl)c2)C(=O)Nc2cccc(Cl)c2)CC1` gave an IC50 of 710 nM.

`Cc1[nH]c(C)c(-c2csc3ccccc23)c(=O)c1Cl` came in with an IC50 of 1020 nM. As for `CC(C)(C)c1ccc(Cc2cccc3nc(N)nc(N)c23)cc1`, the figure is 830 nM; as for `O=C(/C=C/c1ccc(Cl)c(Cl)c1)N1CC[C@H]2C[C@H](N3CCC(c4c[nH]c5ccccc45)CC3)CC[C@@H]2C1`, 170 nM. As for `O=C1CCCN1CCCNCc1ccc(-c2ccc(-c3nc4ccc(F)cc4[nH]3)cc2)cc1`, the figure is 600 nM.

The compound `COc1ccc(-c2nc(NC(=O)Cc3ccc4c(c3)OCCO4)sc2C)cc1` registered an IC50 of 240 nM.

As for `O=C(/C=C/c1ccc(Cl)c(Cl)c1)NCCCCCN1CCCN(C(=O)Nc2ccc(F)c(F)c2)CC1`, the IC50 was determined as 800 nM. For `COc1cc2c(cc1OC)CN(CCc1ccc(NC(=O)c3cc4cc(OC(F)(F)F)ccc4[nH]3)cc1)CC2` the value was 530 nM.

In turn, `CN1CCN(c2cc(-c3ccncc3)nc(-c3cccnc3)n2)CC1` yielded an IC50 of 810 nM. For `CCCCCCCn1c(=N)n(CC(O)c2ccc(Cl)c(Cl)c2)c2ccccc21` (stereo not given) the value was 780 nM; for `CCc1ccc(CN2CCC(CN(c3ccc(N4CCOCC4)c(F)c3)S(=O)(=O)c3ccc(C(C)(C)CC)cc3)CC2)cc1`, 710 nM; for `OC(CNCc1ccccc1OCc1ccccc1)c1cc(C(F)(F)F)cc(C(F)(F)F)c1` (stereo not given), 130 nM.
